# Assay results as given in US11345712B2, “Protein-targeting compounds and pharmaceutical compositions thereof, and their therapeutic applications” (BioTheryX, Inc., priority 2019, dated 2022).
# Test system: MOLM-13 cells
# Test: MOLM-13 cell viability assay (CellTiter-Glo)
# Format: cell-based
# Conditions: Homo sapiens, MOLM-13, 72 h, 3 days, concentration of 1 μM, read-out: Antiproliferative Activity (inhibition, MOLM-13 cell viability)
# Protocol: MOLM-13 cells were cultured in RPMI 1640 media supplemented with 10% fetal bovine serum, streptomycin, and penicillin. The cells were plated in white walled 96-well plates at 2,500 cells/well. The cells were incubated in DMSO (control) or an indicated compound for 3 days at 37° C. and 5% CO2. Following the incubation period, 100 μL of CELLTITER-GLO® (CTG) reagent was added to each well. Following a 10 minutes incubation with shaking, luminescence was measured using an ENVISION® Multimode plate reader.
row,SMILES,cytotoxicity at 1 µM [%]
1,"O=C1CCC(N2Cc3c(CCNC(=O)C(=O)c4ccc(C5(C(F)(F)F)CC5)cc4)cccc3C2=O)C(=O)N1 (stereo not shown) [Compound I-65, N-(2-(2-(2,6-dioxopiperidin-3-yl)-1-oxoisoindolin-4-yl)ethyl)-2-oxo-2-(4-(1-(trifluoromethyl)cyclopropyl)phenyl)acetamide]",< 25
2,"O=C1CCC(N2Cc3c(CNC(=O)C(=O)c4ccc(C5CCNCC5)cc4)cccc3C2=O)C(=O)N1 (stereo not shown) [Compound I-66, N-((2-(2,6-dioxopiperidin-3-yl)-1-oxoisoindolin-4-yl)methyl)-2-oxo-2-(4-(piperidin-4-yl)phenyl)acetamide]",< 25
3,"CC(C)(C)C1CCC(C(=O)C(=O)NCc2cccc3c2CN(C2CCC(=O)NC2=O)C3=O)CC1 (stereo not shown) [Compound I-67, 2-(4-(tert-butyl)cyclohexyl)-N-((2-(2,6-dioxopiperidin-3-yl)-1-oxoisoindolin-4-yl)methyl)-2-oxoacetamide]",25 to 50
4,"CC(C)(C)C1CCC(C(=O)C(=O)NCc2ccc3c(c2)CN(C2CCC(=O)NC2=O)C3=O)CC1 (stereo not shown) [Compound I-68, 2-(4-(tert-butyl)cyclohexyl)-N-((2-(2,6-dioxopiperidin-3-yl)-1-oxoisoindolin-5-yl)methyl)-2-oxoacetamide]",< 25
5,"Cc1ccc(C(=O)C(=O)NCc2cccc3c2CN(C2CCC(=O)NC2=O)C3=O)cc1 (stereo not shown) [Compound I-72, N-((2-(2,6-dioxopiperidin-3-yl)-1-oxoisoindolin-4-yl)methyl)-2-oxo-2-(p-tolyl)acetamide]",< 25
6,"O=C1CCC(N2Cc3c(CNC(=O)C(=O)c4ccc(F)c(F)c4)cccc3C2=O)C(=O)N1 (stereo not shown) [Compound I-73, 2-(3,4-difluorophenyl)-N-((2-(2,6-dioxopiperidin-3-yl)-1-oxoisoindolin-4-yl)methyl)-2-oxoacetamide]",< 25
7,"O=C1CCC(N2Cc3c(CNC(=O)C(=O)c4ccccc4)cccc3C2=O)C(=O)N1 (stereo not shown) [Compound I-74, N-((2-(2,6-dioxopiperidin-3-yl)-1-oxoisoindolin-4-yl)methyl)-2-oxo-2-phenylacetamide]",< 25
8,"O=C1CCC(N2Cc3c(CNC(=O)C(=O)c4ccc(C(F)(F)F)cc4)cccc3C2=O)C(=O)N1 (stereo not shown) [Compound I-75, N-((2-(2,6-dioxopiperidin-3-yl)-1-oxoisoindolin-4-yl)methyl)-2-oxo-2-(4-(trifluoromethyl)phenyl)acetamide]",25 to 50
9,"N#Cc1ccc(C(=O)C(=O)NCc2cccc3c2CN(C2CCC(=O)NC2=O)C3=O)cc1 (stereo not shown) [Compound I-76, 2-(4-cyanophenyl)-N-((2-(2,6-dioxopiperidin-3-yl)-1-oxoisoindolin-4-yl)methyl)-2-oxoacetamide]",< 25
10,"O=C1CCC(N2Cc3c(CNC(=O)C(=O)c4ccc(Cl)cc4)cccc3C2=O)C(=O)N1 (stereo not shown) [Compound I-77, 2-(4-chlorophenyl)-N-((2-(2,6-dioxopiperidin-3-yl)-1-oxoisoindolin-4-yl)methyl)-2-oxoacetamide]",< 25
11,"COc1ccc(C(=O)C(=O)NCc2cccc3c2CN(C2CCC(=O)NC2=O)C3=O)cc1 (stereo not shown) [Compound I-78, 2-(4-methoxyphenyl)-N-((2-(2,6-dioxopiperidin-3-yl)-1-oxoisoindolin-4-yl)methyl)-2-oxoacetamide]",25 to 50
12,"COc1cc(OC)c(C(=O)C(=O)NCc2cccc3c2CN(C2CCC(=O)NC2=O)C3=O)c(OC)c1 (stereo not shown) [Compound I-79, 2-(2,4,6-trimethoxyphenyl)-N-((2-(2,6-dioxopiperidin-3-yl)-1-oxoisoindolin-4-yl)methyl)-2-oxoacetamide]",< 25
13,"Cc1cc(C)c(C(=O)C(=O)NCc2cccc3c2CN(C2CCC(=O)NC2=O)C3=O)c(C)c1 (stereo not shown) [Compound I-80, 2-(2,4,6-trimethylphenyl)-N-((2-(2,6-dioxopiperidin-3-yl)-1-oxoisoindolin-4-yl)methyl)-2-oxoacetamide]",< 25
